# In publication PMC4028821 (Chemical communications (Cambridge, England), 2014):
# Target: PARP1 (Homo sapiens, UniProt P09874)
# Test: enzyme inhibition assay with recombinant human PARP1
# Assay type: biochemical
# Chain of PARP1 (P09874 2-1014): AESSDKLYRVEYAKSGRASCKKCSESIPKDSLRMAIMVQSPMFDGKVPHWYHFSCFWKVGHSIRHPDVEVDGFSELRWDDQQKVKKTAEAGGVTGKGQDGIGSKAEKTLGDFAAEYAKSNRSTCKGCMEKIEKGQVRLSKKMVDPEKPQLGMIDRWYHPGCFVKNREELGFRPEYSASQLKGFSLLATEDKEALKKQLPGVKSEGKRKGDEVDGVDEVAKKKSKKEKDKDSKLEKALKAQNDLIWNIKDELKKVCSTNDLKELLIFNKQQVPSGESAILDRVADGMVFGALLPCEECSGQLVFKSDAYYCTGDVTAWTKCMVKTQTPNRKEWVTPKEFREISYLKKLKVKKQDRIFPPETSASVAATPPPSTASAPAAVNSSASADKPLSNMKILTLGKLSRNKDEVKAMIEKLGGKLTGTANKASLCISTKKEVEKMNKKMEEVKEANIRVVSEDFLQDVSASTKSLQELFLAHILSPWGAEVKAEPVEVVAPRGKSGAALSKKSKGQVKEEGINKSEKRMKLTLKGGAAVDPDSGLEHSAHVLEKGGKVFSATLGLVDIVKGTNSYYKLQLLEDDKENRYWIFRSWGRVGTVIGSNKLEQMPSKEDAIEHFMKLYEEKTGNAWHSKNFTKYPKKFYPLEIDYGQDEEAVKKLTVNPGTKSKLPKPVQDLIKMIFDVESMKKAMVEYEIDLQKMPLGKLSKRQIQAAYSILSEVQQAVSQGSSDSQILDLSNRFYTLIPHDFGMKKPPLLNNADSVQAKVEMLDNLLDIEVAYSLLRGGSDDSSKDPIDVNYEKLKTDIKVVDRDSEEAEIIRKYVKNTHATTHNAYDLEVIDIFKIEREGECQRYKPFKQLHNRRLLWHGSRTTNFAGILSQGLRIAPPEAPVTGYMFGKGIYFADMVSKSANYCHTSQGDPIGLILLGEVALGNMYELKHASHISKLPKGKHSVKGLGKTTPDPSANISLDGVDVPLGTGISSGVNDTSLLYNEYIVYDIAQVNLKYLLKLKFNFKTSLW
row,Substance,IC50
1,Olaparib-SiR-COOH [compound 10],0.1 µM
2,Olaparib-SiR-Me [compound 6],0.0992 µM
